Measurements reported in the supplement of paper PMC11208160.

Experiment: recombinant UMI read abundance after kanamycin selection (control-corrected) (log10(CPM+1)); higher = more efficient recombination; extreme values may be limits of the assay; sequences stand for … in AGTGCAGAGAAAATCGGCCAGTTTTCTCTGCCTGCAGTCCGCATGCCGTGGGACCCCTTGGGTTCTAACCTGTTGCCTAGATTTATGCAGCGGACTGCCTTTCTCCCAAAGTGATAAACCGG…AGGTTGGTTTCACT; site = the 11-nt donor
Procedure, shortened: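 The measure is log10(CPM+1) for recombinant UMIs. These were PCR-amplified across the donor–target junction and sequenced after Escherichia coli carrying a donor and donor-binding-loop pair library and a target plasmid with T7-inducible IS621 bridge recombinase was plated on IPTG (0.07 mM) plus kanamycin or unselected. CPM were averaged over two replicates and scaled by control-derived factors.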
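Further: IS621 bridge recombinase in Escherichia coli cells against a fixed T5 target plasmid.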

Sequence | recombinant UMI read abundance (log10)
GGATAGACATGGACCGGTTTTCCCGGTAATCCGTATTTGCC (site GGATACACTGG) | 1.54
GGATAGACATGGACCGGTTTTCCCGGTAATCCGTATTTGCC (site GGATAGACTAG) | 0.852
GGATAGACATGGACCGGTTTTCCCGGTAATCCGTATTTGCC (site GGATAGACTCG) | 0.799
GGATAGACATGGACCGGTTTTCCCGGTAATCCGTATTTGCC (site GGATAGACTGA) | 1.38
GGATAGACATGGACCGGTTTTCCCGGTAATCCGTATTTGCC (site GGATAGACTGC) | 0
GGATAGACATGGACCGGTTTTCCCGGTAATCCGTATTTGCC (site GGATAGACTGG) | 2.73
GGATAGACATGGACCGGTTTTCCCGGTAATCCGTATTTGCC (site GGATAGACTGT) | 1.32
GGATAGACATGGACCGGTTTTCCCGGTAATCCGTATTTGCC (site GGATAGACTTG) | 1.75
GGATAGACATGGACCGGTTTTCCCGGTAATCCGTATTTGCC (site GGATAGCCTGG) | 0.943
GGATAGACATGGACCGGTTTTCCCGGTAATCCGTATTTGCC (site GGATAGGCTGG) | 1.98
GGATAGACATGGACCGGTTTTCCCGGTAATCCGTATTTGCC (site GGATAGTCTGG) | 1.62
GGATAGACATGGACCGGTTTTCCCGGTAATCCGTATTTGCC (site GGATATACTGG) | 2.8
GGATAGACATGGACCGGTTTTCCCGGTAATCCGTATTTGCC (site GGATCGACTGG) | 0
GGATAGACATGGACCGGTTTTCCCGGTAATCCGTATTTGCC (site GGATGGACTGG) | 0
GGATAGACATGGACCGGTTTTCCCGGTAATCCGTATTTGCC (site GGATTGACTGG) | 0
GGATAGACATGGACCGGTTTTCCCGGTAATCCGTATTTGCC (site GGCTAGACTGG) | 1.03
GGATAGACATGGACCGGTTTTCCCGGTAATCCGTATTTGCC (site GGGTAGACTGG) | 0.24
GGATAGACATGGACCGGTTTTCCCGGTAATCCGTATTTGCC (site GGTTAGACTGG) | 1.09
GGATAGACATGGACCGGTTTTCCCGGTAATCCGTATTTGCC (site GTATAGACTGG) | 1.89
GGATAGACATGGACCGGTTTTCCCGGTAATCCGTATTTGCC (site TGATAGACTGG) | 2.09
GGATAGACATGGACCGGTTTTCCCGGTAATCCGTATTTGGC (site GGATAGACTGA) | 1.7
GGATAGACATGGACCGGTTTTCCCGGTAATCCGTATTTGGC (site GGATAGACTGC) | 2.35
GGATAGACATGGACCGGTTTTCCCGGTAATCCGTATTTGGC (site GGATAGACTGG) | 0
GGATAGACATGGACCGGTTTTCCCGGTAATCCGTATTTGGC (site GGATAGACTGT) | 2.32
GGATAGACATGGACCGGTTTTCCCGGTAATCCGTATTTGTC (site GGATAGACTGA) | 3.09

Sequence | recombinant UMI read abundance (log10)
GGATAGACATGGACCGGTTTTCCCGGTAATCCGTATTTGTC (site GGATAGACTGC) | 0.855
GGATAGACATGGACCGGTTTTCCCGGTAATCCGTATTTGTC (site GGATAGACTGG) | 2.1
GGATAGACATGGACCGGTTTTCCCGGTAATCCGTATTTGTC (site GGATAGACTGT) | 1.81
GGATAGTCATGGACCGGTTTTCCCGGTAATCCGTATTTGCT (site GGATAGTCTAG) | 3.17
GGATATACATGGACCGGTTTTCCCGGTAATCCGTATTTGAT (site GGATATACTAT) | 2.03
GGATCGACATGGACCGGTTTTCCCGGTAATCCGTATTTGTA (site GGATCGACTTA) | 0.775
GGATCGTCATGGACCGGTTTTCCCGGTAATCCGTATTTGCT (site CGATCATCTAG) | 0.402
GGATCGTCATGGACCGGTTTTCCCGGTAATCCGTATTTGCT (site GGATCGTCTAG) | 2.28
GGATGAACATGGACCGGTTTTCCCGGTAATCCGTATTTGTT (site GGATGAACTAA) | 1.78
GGATTCACATGGACCGGTTTTCCCGGTAATCCGTATTTGTT (site GGATTCACTAA) | 1.44
GGATTGGCATGGACCGGTTTTCCCGGTAATCCGTATTTGGT (site GGAATGGCTAC) | 0.341
GGATTGGCATGGACCGGTTTTCCCGGTAATCCGTATTTGGT (site GGACTGGCTAC) | 0.611
GGATTGGCATGGACCGGTTTTCCCGGTAATCCGTATTTGGT (site GGAGTGGCTAC) | 0.0175
GGATTGGCATGGACCGGTTTTCCCGGTAATCCGTATTTGGT (site GGATTGGCTAC) | 1.46
GGCAAACCATGGACCGGTTTTCCCGGTAATCCGTATTTGGT (site GACAAACCTAC) | 0
GGCAAACCATGGACCGGTTTTCCCGGTAATCCGTATTTGGT (site GCCAAACCTAC) | 0
GGCAAACCATGGACCGGTTTTCCCGGTAATCCGTATTTGGT (site GGCAAACCTAC) | 0
GGCAAACCATGGACCGGTTTTCCCGGTAATCCGTATTTGGT (site GTCAAACCTAC) | 0
GGCAACCCATGGACCGGTTTTCCCGGTAATCCGTATTTGAA (site GGCAAACCTTT) | 0
GGCAACCCATGGACCGGTTTTCCCGGTAATCCGTATTTGAA (site GGCAACCCTTT) | 0.0234
GGCAACCCATGGACCGGTTTTCCCGGTAATCCGTATTTGAA (site GGCAAGCCTTT) | 0
GGCAACCCATGGACCGGTTTTCCCGGTAATCCGTATTTGAA (site GGCAATCCTTT) | 0.00284
GGCAATCCATGGACCGGTTTTCCCGGTAATCCGTATTTGAT (site GGCAATCCTAT) | 0.192
GGCAATCCATGGACCGGTTTTCCCGGTAATCCGTATTTGAT (site GGCAATCCTCT) | 0.0105
GGCAATCCATGGACCGGTTTTCCCGGTAATCCGTATTTGAT (site GGCAATCCTGT) | 0

Sequence | recombinant UMI read abundance (log10)
GGCAATCCATGGACCGGTTTTCCCGGTAATCCGTATTTGAT (site GGCAATCCTTT) | 0.00349
GGCAATCCATGGACCGGTTTTCCCGGTAATCCGTATTTGCA (site GGCAATCCTTA) | 0.227
GGCAATCCATGGACCGGTTTTCCCGGTAATCCGTATTTGCA (site GGCAATCCTTC) | 0.0145
GGCAATCCATGGACCGGTTTTCCCGGTAATCCGTATTTGCA (site GGCAATCCTTG) | 0
GGCAATCCATGGACCGGTTTTCCCGGTAATCCGTATTTGCA (site GGCAATCCTTT) | 0.0136
GGCAATTCATGGACCGGTTTTCCCGGTAATCCGTATTTGAA (site GGCAATACTTT) | 0.0193
GGCAATTCATGGACCGGTTTTCCCGGTAATCCGTATTTGAA (site GGCAATCCTTT) | 0.0153
GGCAATTCATGGACCGGTTTTCCCGGTAATCCGTATTTGAA (site GGCAATGCTTT) | 0.0122
GGCAATTCATGGACCGGTTTTCCCGGTAATCCGTATTTGAA (site GGCAATTCTTT) | 0.996
GGCAGAACATGGACCGGTTTTCCCGGTAATCCGTATTTGTG (site GGCAGAACTCA) | 1.3
GGCAGCCCATGGACCGGTTTTCCCGGTAATCCGTATTTGAC (site GGCAGCCCTGT) | 0
GGCAGCGCATGGACCGGTTTTCCCGGTAATCCGTATTTGCT (site GGCAGCGCTAG) | 2.43
GGCAGTCCATGGACCGGTTTTCCCGGTAATCCGTATTTGAA (site GGCAATCCTTT) | 0.00812
GGCAGTCCATGGACCGGTTTTCCCGGTAATCCGTATTTGAA (site GGCACTCCTTT) | 0.018
GGCAGTCCATGGACCGGTTTTCCCGGTAATCCGTATTTGAA (site GGCAGTCCTTT) | 0.191
GGCAGTCCATGGACCGGTTTTCCCGGTAATCCGTATTTGAA (site GGCATTCCTTT) | 0
GGCAGTCCATGGACCGGTTTTCCCGGTAATCCGTATTTGGG (site GGCAGTCCTCC) | 0.00418
GGCAGTGCATGGACCGGTTTTCCCGGTAATCCGTATTTGGA (site GGCAGTGCTTC) | 0.329
GGCATTCCATGGACCGGTTTTCCCGGTAATCCGTATTTGAA (site GGCAATCCTTT) | 0
GGCATTCCATGGACCGGTTTTCCCGGTAATCCGTATTTGAA (site GGCACTCCTTT) | 0.0138
GGCATTCCATGGACCGGTTTTCCCGGTAATCCGTATTTGAA (site GGCAGTCCTTT) | 0.00406
GGCATTCCATGGACCGGTTTTCCCGGTAATCCGTATTTGAA (site GGCATTCCTTT) | 0.29
GGCATTGCATGGACCGGTTTTCCCGGTAATCCGTATTTGGT (site GGCATTGCTAC) | 1.48
GGCATTTCATGGACCGGTTTTCCCGGTAATCCGTATTTGGG (site GGCATTTCTCC) | 0
GGCCAGCCATGGACCGGTTTTCCCGGTAATCCGTATTTGTT (site GGCCAACCTAA) | 0.00333
